Series [1] is described as follows: Cytotoxicity (CC50) in uninfected MRC-5 cells, XTT dye reduction. It counts as cell-based, human. To be noted: human, MRC-5 cells, uninfected (mock-infected). How it is done:
(§1) Echovirus type 11 (ECHO 11) was purchased from ATCC (Rockville, Md.). Virus stocks were propagated and antiviral assays were performed in MRC-5 cells (ATCC). Cells were grown in minimal essential medium with 10% fetal bovine serum (Life Technologies, Gaithersburg, Md.). The ability of the compounds of this invention to protect cells against ECHO 11 infection was measured by the XTT dye reduction method (Weislow et al., J. Natl. Cancer Inst. (1989), vol. 81, 577-586). MRC-5 cells were infected with ECHO 11 at an m.o.i. of 0.003 or 0.004, respectively, or mock-infected with medium only. Infected or uninfected cells were added at 1×10^4 cells per well and incubated with appropriate concentrations of compound. Four days later, XTT/PMS was added to test plates, and the amount of formazan produced was quantified spectrophotometrically at 450/650 nm. […] The therapeutic index (TI) was calculated by dividing the CC50 by the EC50. Activity of the compounds against enterovirus type 70 (EV 70) may be measured by the same assay as described above in this section. Enterovirus type 70 (EV 70) may be obtained from the American Type Culture Collection ATCC (Rockville, Md.).
(In general: Formazan colour is commonly taken as a measure of viable cells.)

Series [2] concerns Coxsackievirus type A-21 (CAV-21). Briefly: Anticoxsackieviral cell culture assay (XTT, EC50), CAV-21. It counts as cell-based, coxsackievirus A-21 in H1-HeLa cells. The settings on record: Coxsackievirus. How it is done:
Anticoxsackieviral Cell Culture Assay:
Coxsackievirus types A-21 (CAV-21) and B3 (CVB3) were purchased from American Type Culture Collection (ATCC, Rockville, Md.). Virus stocks were propagated and antiviral assays were performed in H1-HeLa cells (ATCC). Cells were grown in minimal essential medium with 10% fetal bovine serum (Life Technologies, Gaithersburg, Md.). The ability of the compounds of this invention to protect cells against either CAV-21 or CVB3 infection was measured by the XTT dye reduction method. This method is described in Weislow et al., J. Natl. Cancer Inst. (1989), vol. 81, 577-586. H1-HeLa cells were infected with CAV-21 or CVB3 at a multiplicity of infection (m.o.i.) of 0.025 or 0.075, respectively, or mock-infected with medium only. H1-HeLa cells were plated at 4×10^4 cells per well in a 96-well plate and incubated with appropriate concentrations of the test compound. One day (CVB3) or two days (CAV-21) later, XTT/PMS was added to test plates and the amount of formazan produced was quantified spectrophotometrically at 450/650 nm. […] The therapeutic index (TI) was calculated by dividing the CC50 by the EC50.

The next series concerns coxsackievirus B5 (CVB5). The experiment in a line: Anticoxsackieviral cell culture assay (EC50), CVB5. It counts as cell-based. To be noted: Enterovirus B.
In series [3] the test system is strains of human rhinovirus (HRV). Briefly: Antirhinoviral H1-HeLa cell culture assay (XTT cell protection, EC50), other HRV strains. It counts as cell-based, human rhinovirus in H1-HeLa cells. The settings on record: read-out: EC50. In a few lines: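 H1-HeLa cells infected, or mock-infected, were incubated with compounds for two days. Cell protection measured by XTT/PMS formazan absorbance at 450/650 nm; TI taken as CC50 divided by EC50.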

Another series has as its system MRC-5 cells. The experiment in a line: Cytotoxicity (CC50) in uninfected MRC-5 cells, XTT dye reduction. The series is classed as cell-based, human. How it is done:
as §1

Another series relates to echovirus 6 (ECHO-6). The experiment in a line: Anti-echoviral cell culture assay (EC50), ECHO-6. It counts as cell-based. The settings on record: Enterovirus B.
Series [4] relates to Echovirus type 11 (ECHO 11). The experiment in a line: Anti-echoviral cell culture assay (XTT, EC50), ECHO 11. The series is classed as cell-based, echovirus 11 in MRC-5 cells. To be noted: Enterovirus B. How it is done:
Anti-Echoviral and Anti-Enteroviral Cell Culture Assays
as §1

[5] abbreviates: Human rhinovirus sp., H1-HeLa, HRV-Hanks.
Where [6] appears, read: Human rhinovirus sp., HRV3, H1-HeLa, HRV-3.
Setting [7] is: Human rhinovirus sp., HRV9, H1-HeLa, HRV-9.
Where [8] appears, read: Human rhinovirus sp., HRV10, H1-HeLa, HRV-10.
[9] abbreviates: Human rhinovirus sp., HRV11, H1-HeLa, HRV-11.
Where [10] appears, read: Human rhinovirus sp., HRV13, H1-HeLa, HRV-13.
Where [11] appears, read: Human rhinovirus sp., HRV16, H1-HeLa, HRV-16.
[12] abbreviates: Human rhinovirus sp., HRV19, H1-HeLa, HRV-19.
Setting [13] is: Human rhinovirus sp., HRV25, H1-HeLa, HRV-25.
The mark [14] stands for this setting: Human rhinovirus sp., HRV39, H1-HeLa, HRV-39.
Setting [15] is: Human rhinovirus sp., HRV78, H1-HeLa, HRV-78.
Where [16] appears, read: Human rhinovirus sp., HRV87, H1-HeLa, HRV-87.

Where two headings read alike, the source gives them in different places.

The term CC50 denotes the concentration that lowers cell viability or growth by half. A low value points to greater toxicity to the cells. Broadly, the EC50 is the concentration giving half of the maximal effect. On to `C#CC[C@@H](C(=O)N[C@H](/C=C/C(=O)OC1CCC1)C[C@@H]1CCNC1=O)n1cccc(NC(=O)c2cc(C)on2)c1=O` [Compound 53, trans-(2′S,3′″″S,4S)-4-[2′-(3″-{[1′″-(5″″-Methylisoxazol-3″″-yl)methanoyl]amino}-2′″-oxo-2′″H-pyridin-1′″-yl)pent-4″-ynoylamino]-5-(2′″″-oxopyrrolidin-3′″″-yl)pent-2-enoic Acid Cyclobutyl Ester], for which the CC50 at 4 days in series [1] (line of ECHO-9) was > 10000 nM. Moreover, the EC50 amounted to 476 nM in series [2]; 157 nM in the series with coxsackievirus B5 (CVB5); 128 nM in series [3] (H1-HeLa, HRV-1A); 78 nM in series [3] (H1-HeLa, HRV-2); 45 nM in series [3] (H1-HeLa, HRV-23); 137 nM in series [3] (setting [5]). The EC50 came out at 44 nM in series [3] (setting [6]); 133 nM in series [3] (setting [7]); 37 nM in series [3] (setting [8]); 20 nM in series [3] (setting [9]); 157 nM in series [3] (setting [10]); 102 nM in series [3] (setting [11]). Further, the EC50 came to 53 nM in series [3] (setting [12]), 66 nM in series [3] (setting [13]), 125 nM in series [3] (setting [14]) and 40 nM in series [3] (setting [15]).
For the compound `CCOC(=O)/C=C/[C@H](C[C@@H]1CCNC1=O)NC(=O)[C@H](Cc1ccc(F)c(F)c1)n1cccc(NC(=O)c2cc(C)on2)c1=O` [Compound 33, trans-(2′S,3′″″S,4S)-4-(3′-(3″,4″-Difluorophenyl)-2′-{3′″-[(5″″-methylisoxazole-3″″-carbonyl)amino]-2′″-oxo-2′″H-pyridin-1′″-yl}propionylamino)-5-(2′″″-oxopyrrolidin-3′″″-yl)pent-2-enoic Acid Ethyl Ester], the CC50 in the series on MRC-5 cells (line of ECHO-6) and with MRC-5 cells (line of ECHO-9) was > 10000 nM in each case. Further, the CC50 at 4 days in series [1] (line of ECHO-11) is > 10000 nM. Moreover, the EC50 in the series on echovirus 6 (ECHO-6) came out at 15 nM; in series [2], 4 nM; in the series with coxsackievirus B5 (CVB5), 25 nM; in series [3] (H1-HeLa, HRV-2) it was 3 nM; in series [3] (H1-HeLa, HRV-23) it was 3 nM; in series [3] (setting [5]), 5 nM. The EC50 in series [3] (setting [6]) is 3 nM; in series [3] (setting [7]) it was 15 nM; in series [3] (setting [9]), 3 nM; in series [3] (setting [10]), 14 nM; in series [3] (setting [11]) it was 6 nM; in series [3] (setting [12]), 4 nM. For the same compound, the 50% effective concentration (EC50) in series [3] (setting [13]) was determined as 28 nM; in series [3] (setting [14]), 4 nM; in series [3] (setting [15]) it was 5 nM; in series [3] (setting [16]), 5 nM; in series [4] it was 16 nM.
Consider `C#CC[C@@H](C(=O)N[C@H](/C=C/C(=O)OCC)C[C@@H]1CCNC1=O)n1cccc(NC(=O)c2cc(C)on2)c1=O` [Compound 31, trans-(2′S,3″″S,4S)-4-(2′-{3″-[(5′″-Methyl-isoxazole-3′″-carbonyl)amino]-2″-oxo-2″H-pyridin-1″-yl}pent-4′-ynoyl-amino)-5-(2″″-oxopyrrolidin-3″″-yl)pent-2-enoic Acid Ethyl Ester], for which the CC50 with MRC-5 cells (line of ECHO-9) and in the series on MRC-5 cells (line of ECHO-11) was > 10000 nM in each case. Further, the CC50 at 4 days in series [1] (line of ECHO-6) is > 10000 nM. For the same compound, the EC50 in the series with echovirus 6 (ECHO-6) was 21 nM; in series [2], 161 nM; in the series on coxsackievirus B5 (CVB5), 47 nM; in series [3] (H1-HeLa, HRV-1A), 36 nM; in series [3] (H1-HeLa, HRV-2) it was 13 nM; in series [3] (H1-HeLa, HRV-23) it was 42 nM. The EC50 in series [3] (setting [5]) is 49 nM; in series [3] (setting [6]) it was 21 nM; in series [3] (setting [7]), 44 nM; in series [3] (setting [8]), 48 nM; in series [3] (setting [9]), 5 nM; in series [3] (setting [10]) it was 60 nM. The EC50 in series [3] (setting [11]) stood at 38 nM; in series [3] (setting [12]) it was 50 nM; in series [3] (setting [13]), 87 nM; in series [3] (setting [14]), 43 nM; in series [3] (setting [15]) it was 61 nM; in series [3] (setting [16]), 21 nM. In addition, in series [4], the EC50 was 13 nM.
As for `CCOC(=O)/C=C/[C@H](C[C@@H]1CCNC1=O)NC(=O)[C@H](CC)n1cccc(NC(=O)c2cc(C)on2)c1=O` [Compound 26, trans-(2′S,3″″S,4S)-4-(2′-{3″-[(5′″-Methylisoxazole-3′″-carbonyl)amino]-2″-oxo-2″H-pyridin-1″-yl}butyrylamino)-5-(2″″-oxopyrrolidin-3″″-yl)pent-2-enoic Acid Ethyl Ester], the CC50 in the series on MRC-5 cells (line of ECHO-6) and in the series on MRC-5 cells (line of ECHO-9) was > 10000 nM throughout. The half-maximal cytotoxic concentration (CC50) at 4 days in series [1] (line of ECHO-11) was > 10000 nM. Besides, the EC50 came to 17 nM with echovirus 6 (ECHO-6); 121 nM in series [2]; 18 nM in the series with coxsackievirus B5 (CVB5); 14 nM in series [3] (H1-HeLa, HRV-1A); 16 nM in series [3] (H1-HeLa, HRV-2); 40 nM in series [3] (H1-HeLa, HRV-23). In addition, the half-maximal effective concentration (EC50) in series [3] (setting [5]) is 54 nM; in series [3] (setting [6]), 29 nM; in series [3] (setting [7]), 45 nM; in series [3] (setting [8]) it was 27 nM; in series [3] (setting [9]), 4 nM; in series [3] (setting [10]), 58 nM. Besides, the EC50 is 50 nM in series [3] (setting [11]); 65 nM in series [3] (setting [12]); 102 nM in series [3] (setting [13]); 47 nM in series [3] (setting [14]); 57 nM in series [3] (setting [15]); 21 nM in series [3] (setting [16]). This compound yielded an EC50 in series [4] of 36 nM.
For `Cc1cc(C(=O)Nc2cccn([C@@H](Cc3ccc(F)c(F)c3)C(=O)N[C@H](/C=C/C(=O)OC(C)C)C[C@@H]3CCNC3=O)c2=O)no1` [Compound 48, trans-(2′S,3″″″S,4S)-4-[3′-(3″,4″-Difluorophenyl)-2′-(3′″-{[1″″-(5′″″-methylisoxazol-3′″″-yl)methanoyl]amino}-2″″-oxo-2″″H-pyridin-1″″-yl)propanoylamino]-5-(2″″″-oxopyrrolidin-3″″″-yl)pent-2-enoic Acid Isopropyl Ester], in series [1] (line of ECHO-9), the half-maximal cytotoxic concentration (CC50) at 4 days is > 10000 nM. The EC50 amounted to 1120 nM in series [2]; 178 nM in the series on coxsackievirus B5 (CVB5); 132 nM in series [3] (H1-HeLa, HRV-1A); 48 nM in series [3] (H1-HeLa, HRV-2); 10 nM in series [3] (H1-HeLa, HRV-23); 3 nM in series [3] (setting [5]). The EC50 in series [3] (setting [6]) was 33 nM; in series [3] (setting [7]), 109 nM; in series [3] (setting [8]) it was 85 nM; in series [3] (setting [9]) it was 3 nM; in series [3] (setting [10]), 44 nM; in series [3] (setting [11]), 36 nM. For the same compound, the EC50 in series [3] (setting [12]) amounted to 9 nM; in series [3] (setting [13]), 100 nM; in series [3] (setting [14]) it was 44 nM; in series [3] (setting [15]), 12 nM.

The values are drawn from patent US6514997B2, “Antipicornaviral compounds and compositions, their pharmaceutical uses, and materials for their synthesis” (Agouron Pharmaceuticals, Inc., priority 1999, dated 2003).
